Values quoted from earlier work, collected in US9365837B2, “Peptide inhibitors of protein kinase C” (The Board of Trustees of the Leland Stanford Junior …, priority 2002, dated 2016).

Tested on: Sprague-Dawley rats
Conditions: previously identified active in the assay

## EAIVKQ (fragment derived from SEQ ID NO32) [SEQ ID NO:37, positive control εPKC antagonist, excluded from the peptides of the invention]
  activity in the capsaicin assay (positive control): active
